Reference: article PMC11012124, “Synthesis of Novel Triazine-Based Chalcones and 8,9-dihydro-7H-pyrimido[4,5-b][1,4]diazepines as Potential Leads in the Search of Anticancer, Antibacterial and Antifungal Agents” (International Journal of Molecular Sciences, 2024)

Tests used:
60 cancer cell lines = assay: NCI-60 one-dose screen (10 μM); type: cell-based; details: Homo sapiens; one dose of 10 μM, mean over 60 cancer cell lines; read-out: Mean Growth Percent (MGP)
Source text: Additionally, the mean of the growth percentages (MGP) of each compound against all the 60 cancer cell lines is also reported, which is used as one of the selection criteria to continue with tests at five concentration doses.

UACC-257 = assay: cells; details: Homo sapiens, UACC-257, 48 h
HCT-15 = assay: cells; details: Homo sapiens, HCT-15, 48 h
A498 = assay: cells; details: Homo sapiens, A498, 48 h
HOP-92 = assay: cells; details: Homo sapiens, HOP-92, 48 h
RPMI-8226 = assay: cells; details: Homo sapiens, RPMI-8226, 48 h
OVCAR-5 = assay: cells; details: Homo sapiens, OVCAR-5, 48 h
HT29 = assay: cells; details: Homo sapiens, HT-29, 48 h
786-0 = assay: cells; details: Homo sapiens, 786-0, 48 h
SK-MEL-2 = assay: cells; details: Homo sapiens, SK-MEL-2, 48 h
KM12 = assay: cells; details: Homo sapiens, KM12, 48 h
M14 = assay: cells; details: Homo sapiens, M14, 48 h
NCI-H23 = assay: cells; details: Homo sapiens, NCI-H23, 48 h
MDA-MB-231/ATCC = assay: cells; details: Homo sapiens, MDA-MB-231, 48 h
HCT-116 = assay: cells; details: Homo sapiens, HCT-116, 48 h
T-47D = assay: cells; details: Homo sapiens, T47D, 48 h
HL-60(TB) = assay: cells; details: Homo sapiens, HL-60, 48 h
SNB-75 = assay: cells; details: Homo sapiens, SNB-75, 48 h
COLO 205 = assay: cells; details: Homo sapiens, COLO 205, 48 h
MCF7 = assay: cells; details: Homo sapiens, MCF7, 48 h
NCI-H460 = assay: cells; details: Homo sapiens, NCI-H460, 48 h
SN12C = assay: cells; details: Homo sapiens, 48 h
OVCAR-4 = assay: cells; details: Homo sapiens, OVCAR-4, 48 h, read-out: LC50
SF-539 = assay: cells; details: Homo sapiens, SF-539, 48 h
LOX IMVI = assay: cells; details: Homo sapiens, 48 h
SK-MEL-5 = assay: cells; details: Homo sapiens, SK-MEL-5, 48 h
A549/ATCC = assay: cells; details: Homo sapiens, A549, 48 h
NCI-H226 = assay: cells; details: Homo sapiens, NCI-H226, 48 h
UO-31 = assay: cells; details: Homo sapiens, UO-31, 48 h
U251 = assay: cells; details: Homo sapiens, U-251, 48 h
MDA-MB-468 = assay: cells; details: Homo sapiens, MDA-MB-468, 48 h
DU-145 = assay: cells; details: Homo sapiens, DU-145, 48 h
SK-OV-3 = assay: cells; details: Homo sapiens, SK-OV-3, 48 h
NCI-H522 = assay: cells; details: Homo sapiens, NCI-H522, 48 h
MOLT-4 = assay: cells; details: Homo sapiens, MOLT-4, 48 h
TK-10 = assay: cells; details: Homo sapiens, TK-10, 48 h
SF-295 = assay: cells; details: Homo sapiens, SF-295, 48 h

CN(C)c1nc(NCCNS(=O)(=O)c2ccc(C3=Nc4c(N)nc(N)nc4NC(c4ccc(Cl)cc4)C3)cc2)nc(Nc2ccc(F)cc2)n1 (centres unmarked) [31e]
activity at 10 µM (60 cancer cell lines): 30.8%
GI50 (UACC-257): 8.07 µM
CC50 (UACC-257; read-out: LC50): > 100 µM
GI50 (HCT-15): > 100 µM
CC50 (HCT-15; read-out: LC50): > 100 µM
GI50 (A498): 58.4 µM
CC50 (A498; read-out: LC50): > 100 µM
GI50 (HOP-92): 2.53 µM
CC50 (HOP-92; read-out: LC50): 13.2 µM
GI50 (RPMI-8226): 3.19 µM
CC50 (RPMI-8226; read-out: LC50): > 100 µM
GI50 (OVCAR-5): > 100 µM
CC50 (OVCAR-5; read-out: LC50): > 100 µM
GI50 (HT29): 2.68 µM
CC50 (HT29; read-out: LC50): 7.54 µM
GI50 (786-0): 6.21 µM
CC50 (786-0; read-out: LC50): > 100 µM
GI50 (SK-MEL-2): 3.34 µM
CC50 (SK-MEL-2; read-out: LC50): 14 µM
GI50 (KM12): 3.98 µM
CC50 (KM12; read-out: LC50): > 100 µM
GI50 (M14): 3.15 µM
CC50 (M14; read-out: LC50): 11.5 µM
GI50 (NCI-H23): 72.7 µM
CC50 (NCI-H23; read-out: LC50): > 100 µM
GI50 (MDA-MB-231/ATCC): 3.73 µM
CC50 (MDA-MB-231/ATCC; read-out: LC50): 65.7 µM
GI50 (HCT-116): 3.77 µM
CC50 (HCT-116; read-out: LC50): > 100 µM
GI50 (T-47D): 7.93 µM
CC50 (T-47D; read-out: LC50): > 100 µM
GI50 (HL-60(TB)): 2.72 µM
CC50 (HL-60(TB); read-out: LC50): 13.3 µM
GI50 (SNB-75): 3.76 µM
CC50 (SNB-75; read-out: LC50): > 100 µM
GI50 (COLO 205): 5.65 µM
CC50 (COLO 205; read-out: LC50): 25.6 µM
GI50 (MCF7): 2.89 µM
CC50 (MCF7; read-out: LC50): > 100 µM
GI50 (NCI-H460): 4.49 µM
CC50 (NCI-H460; read-out: LC50): > 100 µM
GI50 (SN12C): 7.37 µM
CC50 (SN12C; read-out: LC50): > 100 µM
CC50 (OVCAR-4): > 100 µM
GI50 (SF-539): 3.3 µM
CC50 (SF-539; read-out: LC50, SF-539, 48 h): > 100 µM
GI50 (LOX IMVI): 1.77 µM
CC50 (LOX IMVI; read-out: LC50, LOX IMVI, 48 h): 3.55 µM
GI50 (SK-MEL-5): 3.45 µM
CC50 (SK-MEL-5; read-out: LC50): 14.3 µM
GI50 (A549/ATCC): > 100 µM
CC50 (A549/ATCC; read-out: LC50): > 100 µM
GI50 (NCI-H226): > 100 µM
CC50 (NCI-H226; read-out: LC50): > 100 µM
GI50 (UO-31): > 100 µM
CC50 (UO-31; read-out: LC50): > 100 µM
GI50 (U251; U251, 48 h): 5.14 µM
CC50 (U251; read-out: LC50): > 100 µM
GI50 (MDA-MB-468): 1.92 µM
CC50 (MDA-MB-468; read-out: LC50): 4.92 µM
GI50 (DU-145): > 100 µM
CC50 (DU-145; read-out: LC50): > 100 µM
GI50 (SK-OV-3): > 100 µM
CC50 (SK-OV-3; read-out: LC50): > 100 µM
GI50 (NCI-H522): 16 µM
CC50 (NCI-H522; read-out: LC50): > 100 µM
GI50 (MOLT-4): 2.68 µM
GI50 (TK-10): > 100 µM
CC50 (TK-10; read-out: LC50): > 100 µM
GI50 (SF-295): 6.2 µM
CC50 (SF-295; read-out: LC50): > 100 µM
